The record followed here is patent publication US12391641B2, “Prostaglandin EP4 receptor antagonist compounds” (NXERA PHARMA UK LIMITED, priority 2019, dated 2025).

The target in this assay is T1, Human prostaglandin E2 receptor 4 (EP4) (Homo sapiens, UniProt P35408).
T1 construct: expressed in transfected cells; host or cells: HEK293 cells transduced with EP4 BacMam virus
T1 sequence (P35408 whole entry): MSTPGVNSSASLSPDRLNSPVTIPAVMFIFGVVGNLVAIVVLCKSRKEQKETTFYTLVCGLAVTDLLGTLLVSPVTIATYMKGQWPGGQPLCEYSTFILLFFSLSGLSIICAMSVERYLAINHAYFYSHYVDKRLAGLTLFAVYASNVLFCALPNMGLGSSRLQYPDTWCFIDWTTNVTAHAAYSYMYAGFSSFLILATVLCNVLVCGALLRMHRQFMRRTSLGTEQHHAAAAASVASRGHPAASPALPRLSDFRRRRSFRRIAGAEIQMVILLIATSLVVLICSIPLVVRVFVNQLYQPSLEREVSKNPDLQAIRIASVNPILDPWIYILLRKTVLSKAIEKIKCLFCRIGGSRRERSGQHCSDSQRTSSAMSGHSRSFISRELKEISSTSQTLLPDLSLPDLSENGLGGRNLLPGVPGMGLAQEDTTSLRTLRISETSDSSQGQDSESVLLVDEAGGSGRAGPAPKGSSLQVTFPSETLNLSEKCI
Kind of assay: cAMP Gs Functional Assay (HTRF cAMP dynamic-2), antagonism of PGE2. The class given is cell-based. Conditions: HEK293 cells transfected with EP4 BacMam virus; PGE2 challenge at EC80 (7 nM); pIC50 converted to functional pKb with a modified Cheng Prussoff equation; read-out: Human EP4 fpKb (converted). In short, it runs like this:
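HEK293 cells transiently expressing human EP4 via BacMam (36 h), preincubated with compound 30 min at 37 °C in DMEM + 0.5 mM IBMX, 5000 cells/well, then challenged with EC80 PGE2 (7 nM). cAMP read by HTRF; pIC50 converted to pKb by modified Cheng-Prusoff using agonist EC50 and challenge concentration.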
(Time-resolved FRET reads energy transfer from a long-lived donor to a nearby acceptor.)
As to `CC(C)[C@@H](OCc1ccnc(OC(F)F)c1)C(=O)NC1(c2ccc(C(=O)O)cc2)CC1` [Example 67, (R)-4-(1-(2-((2-(difluoromethoxy)pyridin-4-yl)methoxy)-3-methylbutanamido)cyclopropyl)benzoic acid], the Ki was 0.575 nM.
Take `CC(C)[C@@H](OCc1cc(OC(F)F)ccn1)C(=O)NC1(c2ccc(C(=O)O)cc2)CC1` [Example 68, (R)-4-(1-(2-((4-(difluoromethoxy)pyridin-2-yl)methoxy)-3-methylbutanamido)cyclopropyl)benzoic acid]: the Ki was 0.562 nM.
For the compound `CC(C)[C@@H](OCc1ccc(C(F)(F)F)cc1)C(=O)NC1(c2ccc(-c3nnn[nH]3)cc2)CC1` [Example 69, (R)—N-(1-(4-(1H-tetrazol-5-yl)phenyl)cyclopropyl)-3-methyl-2-((4-(trifluoromethyl)benzyl)oxy)butanamide], the Ki is 0.955 nM.
Turning to `CC(C)[C@@H](OCc1ccc(F)cc1)C(=O)NC1(c2ccc(-c3nnn[nH]3)cc2)CC1` [Example 70, (R)—N-(1-(4-(1H-tetrazol-5-yl)phenyl)cyclopropyl)-2-((4-fluorobenzyl)oxy)-3-methylbutanamide], the Ki was 6.92 nM.
Under `CC(C)[C@@H](OCc1ccc(F)c(F)c1)C(=O)NC1(c2ccc(-c3nnn[nH]3)cc2)CC1` [Example 71, (R)—N-(1-(4-(1H-tetrazol-5-yl)phenyl)cyclopropyl)-2-((3,4-difluorobenzyl)oxy)-3-methylbutanamide] stands 0.372 nM; under `CC(C)[C@@H](OCc1cccc(OC(F)F)c1)C(=O)NC1(c2ccc(-c3nnn[nH]3)cc2)CC1` [Example 72, (R)—N-(1-(4-(1H-tetrazol-5-yl)phenyl)cyclopropyl)-2-((3-(difluoromethoxy)benzyl)oxy)-3-methylbutanamide], 0.589 nM; under `CC(C)[C@@H](OCc1ccc(C(F)(F)F)cc1)C(=O)NC1(c2ccc(C(=O)O)cc2)CCC1` [Example 73, (R)-4-(1-(3-methyl-2-((4-(trifluoromethyl)benzyl)oxy)butanamido)cyclobutyl)benzoic acid], 182 nM.
In the case of `CC(C)[C@@H](OCc1ccnc(OC(F)F)c1)C(=O)N[C@@H](C)c1ccc(C(=O)O)cc1` [Example 74, 4-((S)-1-((R)-2-((2-(difluoromethoxy)pyridin-4-yl)methoxy)-3-methylbutanamido)ethyl)benzoic acid], the Ki was 0.447 nM.
In the case of `CC(C)[C@@H](OCc1ccc(C(F)(F)F)cn1)C(=O)NC1(c2ccc(C(=O)O)cc2)CC1` [Example 75, (R)-4-(1-(3-methyl-2-((5-(trifluoromethyl)pyridin-2-yl)methoxy)butanamido)cyclopropyl)benzoic acid], the Ki is 69.2 nM.
As to `CC(C)[C@@H](OCc1ccc(C(F)(F)F)nc1)C(=O)NC1(c2ccc(C(=O)O)cc2)CC1` [Example 76, (R)-4-(1-(3-methyl-2-((6-(trifluoromethyl)pyridin-3-yl)methoxy)butanamido)cyclopropyl)benzoic acid], the Ki is 33.1 nM.
Take `CC(C)[C@@H](OCc1cc(OC(F)F)ccn1)C(=O)N[C@@H](C)c1ccc(C(=O)O)cc1` [Example 77, 4-((S)-1-((R)-2-((4-(difluoromethoxy)pyridin-2-yl)methoxy)-3-methylbutanamido)ethyl)benzoic acid]: the Ki was 27.5 nM.
In the case of `CC(C)[C@@H](OCc1ccc(F)c(Cl)c1)C(=O)NC1(c2ccc(C(=O)O)cc2)CC1` [Example 78, (R)-4-(1-(2-((3-chloro-4-fluorobenzyl)oxy)-3-methylbutanamido)cyclopropyl)benzoic acid], the Ki was over 20900 nM.
Regarding `CC(C)[C@@H](OCc1ccc(Cl)c(F)c1)C(=O)NC1(c2ccc(C(=O)O)cc2)CC1` [Example 79], the Ki is 2.45 nM.
Under `CC(C)[C@@H](OCc1cccc(C2CC2)c1)C(=O)NC1(c2ccc(-c3nnn[nH]3)cc2)CC1` [Example 80, (R)-2-((3-cyclopropylbenzyl)oxy)-N-(1-(4-(2,3-dihydro-1H-tetrazol-5-yl)phenyl)cyclopropyl)-3-methylbutanamide] stands 0.195 nM; under `CC(C)[C@@H](OCc1ccc(F)cc1)C(=O)N[C@@H](C)c1ccc(C(=O)NS(=O)(=O)C2CC2)cc1` [Example 81, N-(cyclopropylsulfonyl)-4-((S)-1-((R)-2-((4-fluorobenzyl)oxy)-3-methylbutanamido)ethyl)benzamide], 302 nM.
`CC(C)[C@@H](OCc1cccc(OC(F)F)c1)C(=O)N[C@@H](C)c1ccc(-c2nnn[nH]2)cc1` [Example 82, (R)—N—((S)-1-(4-(1H-tetrazol-5-yl)phenyl)ethyl)-2-((3-(difluoromethoxy)benzyl)oxy)-3-methylbutanamide]: the Ki was 0.0871 nM.
Under `CC(C)[C@@H](OCc1cccc(C2CC2)c1)C(=O)N[C@@H](C)c1ccc(-c2nnn[nH]2)cc1` [Example 83, (R)—N—((S)-1-(4-(1H-tetrazol-5-yl)phenyl)ethyl)-2-((3-cyclopropylbenzyl)oxy)-3-methylbutanamide] stands 0.186 nM; under `CC(C)[C@@H](OCc1ccc(C(F)F)nc1)C(=O)NC1(c2ccc(C(=O)O)cc2)CC1` [Example 84, (R)-4-(1-(2-((6-(difluoromethyl)pyridin-3-yl)methoxy)-3-methylbutanamido)cyclopropyl)benzoic acid], 11.2 nM.
Regarding `CC(C)[C@@H](OCc1ccc(F)c(C2CC2)c1)C(=O)N[C@@H](C)c1ccc(C(=O)O)cc1` [Example 85, 4-((S)-1-((R)-2-((3-cyclopropyl-4-fluorobenzyl)oxy)-3-methylbutanamido)ethyl)benzoic acid], the Ki was 0.055 nM.
Consider `CC(C)[C@@H](OCc1ccc(C(F)F)cn1)C(=O)NC1(c2ccc(C(=O)O)cc2)CC1` [Example 88, (R)-4-(1-(2-((5-(difluoromethyl)pyridin-2-yl)methoxy)-3-methylbutanamido)cyclopropyl)benzoic acid], for which the Ki is 11.7 nM.
Under `CC(C)[C@@H](OCc1ccc(F)c(C2CC2)c1)C(=O)NC1(c2ccc(C(=O)O)cc2)CC1` [Example 89, (R)-4-(1-(2-((3-cyclopropyl-4-fluorobenzyl)oxy)-3-methylbutanamido)cyclopropyl)benzoic acid] stands 6.76 nM.
Under `CC(C)[C@@H](OCc1cccc(S(=O)(=O)C2CC2)c1)C(=O)N[C@@H](C)c1ccc(C(=O)O)cc1` [Example 90, 4-((S)-1-((R)-2-((3-(cyclopropylsulfonyl)benzyl)oxy)-3-methylbutanamido)ethyl)benzoic acid] stands 29.5 nM; under `CC(C)[C@@H](OCc1cccc(S(=O)(=O)C2CC2)c1)C(=O)NC1(c2ccc(C(=O)O)cc2)CC1` [Example 91, (R)-4-(1-(2-((3-(cyclopropylsulfonyl)benzyl)oxy)-3-methylbutanamido)cyclopropyl)benzoic acid], 20 nM; under `CS(=O)(=O)c1cccc(COC(C(=O)NC2(c3ccc(C(=O)O)cc3)CC2)C2CCC2)c1` (stereo not shown) [Example 95, 4-(1-(2-cyclobutyl-2-((3-(methylsulfonyl)benzyl)oxy)acetamido)cyclopropyl)benzoic acid], 79.4 nM.
Consider `O=C(O)c1ccc(C2(NC(=O)C(OCc3ccc(C(F)(F)F)cc3)C3CCC3)CC2)cc1` (stereo not shown) [Example 96, 4-(1-(2-cyclobutyl-2-((4-(trifluoromethyl)benzyl)oxy)acetamido)cyclopropyl)benzoic acid], for which the Ki was 6.61 nM.
